Data on nine compounds can be found in patent publication US8772334B2, “Synergistic antimicrobial mixtures” (priority 2008, dated 2014).

In one test the test system is mildew. The experiment in a line: Outdoor exposure of wood-plastic composite panels including biocides, mildew growth (ASTM D 3274-94). The arrangement: key: 10 - No mildew growth; 9 - Very slight growth; 8 - Slight (very good); 7 - Some growth (good); 6 - Moderate growth (considered a failure); 4 - Pronounced growth; 2 - Severe growth; 0 - Very severe growth. To be noted: WPC panel, Miami; for Mildew Growth 3 Months: 3 months outdoors; for Mildew Growth 6 Months: 6 months outdoors; for Mildew Growth 9 Months: 9 months outdoors; for Mildew Growth 12 Months: 12 months outdoors. On the procedure: Several candidate biocides were tested in a typical WPC formulation, which is presented below in Table I.
WPC panels for evaluation were prepared by blending the above ingredients in a drum mixer for 30 to 35 minutes at 30 to 40 rpm and then processing the resulting mixture through a Tek Milacron extruder. This extruder is a twin-screw counter rotating conical unit having four temperature zones, for a total heated length of ten feet (3.0 m), and a 3.38 inch (86 mm) die at the exit. The temperature of extrusion was in the range of 340 to 350 degrees F. (171 to 177 degrees C.) and the WPC boards so produced had dimensions of about 5 feet (152 cm)×5½ inches (14 cm)×1 inch (2.5 cm). The WPC boards were subsequently cut into panels of one foot (30 cm) length.
Wood-plastic composite panels incorporating various biocides were prepared in accordance with the procedure set forth above in Example 1. The panels were evaluated for mildew growth by being exposed to the weather outdoors in Miami, Fla. for one year under a protocol publicly known as ASTM D 3274-94 of ASTM International (originally known as the American Society for Testing and Materials).
For the purposes of this evaluation, any biocide or combination of biocides which prevents moderate (or worse) mildew growth for an outdoor exposure period of at least 9 months is considered to have passed the weathering test.

Test [1] has as its system Aspergillus niger, also known as ATCC 6275. The experiment in a line: MIC by spiral plater (spiral gradient endpoint) and Berenbaum FIC synergy against A. niger. It counts as cell-based. The note with it: for MIC ppm, average of spiral plater replications: malt agar, 48 hours at 28° C., ppm of active fungicide, mean of twelve replications. The source says:
A method for assessing synergy of a multi-component mixture having biologically active components is described in a technical article by M. C. Berenbaum entitled “Synergy, additivism and antagonism in immunosuppression”, which was published in the Journal of Clinical Experimental Immunology. See Clinical Exp. Immunol. 28, p. 1-18 (1977).
In the method, the dose of each agent which provides a synergistic or antagonistic effect in the overall biological effect of a mixture against a particular organism is expressed as a fraction of the dose that causes the effect when the respective agent is tested alone (hereinafter referred to as “dose of X/Xe”, “Fractional Inhibitory Concentration of agent X” or “FICX”). If the sum of the FICX's for a combination of active ingredients in a mixture is 1, the combination is additive in its effect. If the sum is less than one, the combination is synergistic. If the sum is greater than one, the combination is antagonistic. The general relationship (which may be an equality or an inequality) expressed for multi-component mixtures of biologically active components is herein designated Equation 1, as follows: […]
In order to apply the Berenbaum method to compositions of the invention, mixtures of fungicidal agents are prepared. The fungicidal activity of each of the mixtures is determined and expressed in terms of a minimum inhibitory concentration, which is just sufficient to inhibit the growth of a given microbe (hereinafter referred to “MIC”) for each of the mixtures. These MICs are subsequently used to calculate FICX for each agent X of a particular mixture. All of the FICX 's for each mixture (also known as the doses of X/Xe for the mixture) are summed, and the criteria for synergism, additivism and antagonism (as set forth above in Equation 1) are used to assess the mixture.
Minimum Inhibitory Concentrations (hereinafter referred to as “MIC”) for various mixtures of biocides were determined against spore suspensions of the fungus Aspergillus niger, also known as ATCC 6275 (hereinafter referred to as “A. niger”). […]

Test [2] concerns Aureobasidium pullulans, also known as ATCC 9348. The experiment in a line: MIC by spiral plater and Berenbaum FIC synergy against A. pullulans. It counts as cell-based. The note with it: mean of twelve replications.
The mark [3] stands for this setting: 0.2 mass % biocide (0.2 mass % active).
The mark [4] stands for this setting: 0.22 mass % biocide (0.22 mass % active).
[5] abbreviates: 0.23 mass % biocide (0.23 mass % active).
The mark [6] stands for this setting: 4.0 mass % biocide (4.0 mass % active).

Bounds are passed on as bounds.

For the compound `COC(=O)Nc1nc2ccccc2[nH]1` [98% BCM, methyl-N-benzimidazol-2-ylcarbamate], in the test on mildew (setting [3]), the “Mildew Growth 3 Months” value amounted to 5, the “Mildew Growth 6 Months” value stood at 1, the “Mildew Growth 9 Months” value worked out at 2 and the “Mildew Growth 12 Months” value turned out to be 4.

As usually defined, the MIC is the least concentration at which growth counts as inhibited. For the compound `COC(=O)Nc1nc2ccccc2[nH]1` [BCM, 2-(methoxycarbonylamino)benzimidazole], the MIC in test [1] (Aspergillus niger, ATCC6275, pure BCM, read-out: MIC, average of values for Mixtures No. 2 and 3) is 2.6 µg/mL.

`O=C1C2CC=CCC2C(=O)N1SC(Cl)(Cl)Cl` (stereo not drawn) [Captan]: in the test with mildew (setting [4]), the “Mildew Growth 3 Months” value was 9, the “Mildew Growth 6 Months” value is 1, the “Mildew Growth 9 Months” value amounted to 2 and the “Mildew Growth 12 Months” value was 4.

Turning to `N#Cc1c(Cl)c(Cl)c(Cl)c(C#N)c1Cl` [Chlorothalonil], in the test with mildew (setting [3]), the “Mildew Growth 3 Months” value amounted to 9, the “Mildew Growth 6 Months” value was 2, the “Mildew Growth 9 Months” value is listed as 0 and the “Mildew Growth 12 Months” value is reported as 3.

As for `O=C1c2ccccc2C(=O)N1SC(Cl)(Cl)Cl` [Folpet], in the test on mildew (setting [5]), the “Mildew Growth 3 Months” value stood at 10, the “Mildew Growth 6 Months” value turned out to be 2, the “Mildew Growth 9 Months” value is 0 and the “Mildew Growth 12 Months” value stood at 0.

As for `CCCCNC(=O)OCC#CI` [IPBC, 3-iodo-2-propynyl butyl carbamate], the “MIC ppm, average of spiral plater replications” value (from here on “MIC ppm, average”) in test [1] amounted to 0.7 ppm.

For Zinc Borate [99% Zinc Borate], in the test on mildew (setting [6]), the “Mildew Growth 3 Months” value turned out to be 8, the “Mildew Growth 6 Months” value is given as 2, the “Mildew Growth 9 Months” value stood at 6 and the “Mildew Growth 12 Months” value is recorded as 5.

On to zinc borate [Mixture No. 4], for which the “MIC ppm, average” value in test [2] is recorded as above 1000 ppm.

Turning to zinc borate [ZB], the “MIC ppm, average” value in test [1] worked out at 12 ppm.
